Assays:
[1] = test system: LTB4 -induced neutropenia; experiment: LTB4-induced neutropenia in the rat; assay type: in vivo; conditions: dose of about 0.5 mg./Kg p.o., determined at four hours after administration
Protocol: LTB4 -Induced Neutropenia in the Rat
Male Sprague Dawley rats (crl: CDBR; Charles River, Wilmington, Mass.) (250-300 grams) are fasted overnight prior to the experiment. At least six animals are used per treatment group. Rats are given vehicle or compound either intravenously or orally and at intervals after dosing, neutrophil counts are determined from blood samples obtained just prior to and 20 seconds after intravenous infusion of 200 ng LTB4. In studies where compound is administered orally, drug is given by gavage. When drug is administered intravenously, rats are first anesthetized with 50 mg/kg i.p. of Sodium Pentabarbital. The jugular vein is exposed and cleaned of the surrounding tissue. At 3, 4 or 18 hours following administration of compound or vehicle by either route, blood samples are taken (0.3 ml of blood in 1.5 ml polypropylene microcentrifuge tube containing 0.01 mi 7.5% EDTA). Blood neutrophil counts are determined using a Technicon H-1 hematology instrument. Antagonism of the LTB4 -induced neutropenia response for the compounds tested is calculated.

Human PMNs = experiment: LTB4-induced PMN aggregation; assay type: cell-based; conditions: in vitro, 20 nM LTB4, read-out: inhibits LTB4 -induced PMN aggregation, IC50
Protocol: Neutrophils (PMN's) are prepared from uncoagulated human venous blood. Blood is dispersed into 50 ml polypropylene tubes containing 15 ml of HESPAN (Dupont, Wilmington, Del.), and mixed. Tubes are allowed to stand at room temperature for 40 minutes until most of the red blood cells sediment. The supernatants are removed and centrifuged for 5-10 min at 400×g. The remaining pellets are diluted in 70 ml of Phosphate Buffered Saline without calcium and magnesium (PBS without metals; GIBCO, Grand Island, N.Y.) and 35 ml of this suspension are placed in each of two polypropylene tubes containing 15 ml of Ficoll-Paque (Sigma, St. Louis, Mo.). Gradients are then centrifuged for 15 minutes at 420×g. […]
Human PMNs are prepared as previously described. Neutrophil aggregation is assessed by monitoring the intensity of light passing through a suspension of cells (Craddock et al., J. Clin. Invest. 60: 260-264, 1977) using a Payton dual channel aggregometer (model 300BD). […] 5 μl of 2 μM LTB4 in PBS (20 nM final concentration) are added and the aggregation response monitored for 3-5 min, the time required for optimal response, Compounds are solubilized in 0.01M DMSO and then diluted in PBS to 0.001 M. 5 μl of compound solution is added along with cytochalasin B and cells as described above. Following the preincubation period 5 μl of 2 μM LTB4 are added and aggregation is measured. […]

SMILES: CC(C)N(C(=O)c1ccc(OCCCCCOc2ccc(C(N)=NO)cc2)cc1O)C(C)C [Example 1, 4-[5-[4-[amino(hydroxyimino)methyl]phenoxy]pentyloxy]-2-hydroxy-N,N-bis(1-methylethyl)benzamide]
- inhibition of LTB4 -induced neutropenia in the rat [1]: causes inhibition
- IC50 (Human PMNs): ~10 nM

Reference: patent US5455274A, “Hydroxyamidine derivatives” (Ciba-Geigy Corporation, priority 1992, dated 1995)
